Results: patent US6818741B2, “Alpha-fetoprotein peptides and uses therof” (CLF Medical Technology Acceleration Program, Inc., priority 2000, dated 2004)
Entries after “also recorded” stand apart in the source; their conditions may differ. Square brackets hold non-standard residues; d marks the D form. Ends that are not written are not given here. Peptide text beside a SMILES is read from it. Hyp = O=C(O)[C@@H]1C[C@@H](O)CN1

Assays:
[1] = test system: E2-stimulated growth of immature mouse uterus; assay: Immature mouse uterine growth assay (anti-estrotrophic activity); assay type: in vivo; settings: for inhibition of the uterotrophic effect of estradiol (normalized uterine weight, E2+ Pep vs E2): Pep i.p. one hour before E2, uteri weighed 22 hours later; for dose of maximal (optimal) inhibition of estrogen-stimulated growth of mouse uterus: i.p., dose-response; for effect of 4 M urea treatment on biological activity of stored peptide: stored (aged) peptide, brief treatment with 4 M urea; for biological activity of gel-filtration fraction: aged peptide, 1 μg i.p.
Source text: (§1) Twenty-two hours later, uteri were dissected and weighed. […] (FIG. 1a) Peptide dose-response.
(§2) Immature Mouse Uterine Growth Assay.

[2] = test system: MCF-7 human breast cancer xenografts; assay: Human breast cancer xenograft assay, MCF-7; assay type: in vivo; settings: E2 implant; peptide 1 μg i.p. twice a day; tamoxifen 50 μg i.p. once a day; 30-day observation; vs E2 alone
Description: (§3) Tumors were implanted as described in Materials and Methods. […] There was a minimum of 5 mice per group. (FIG. 9a) MCF-7 tumors.
Human Breast Cancer Xenograft Assay. A bioassay for anti-breast cancer activity was performed according to Bennett et al. (23;24). Confluent MCF-7 human breast cancer cells were trypsinized into suspension and pelleted by centrifugation at 200× g. The pellet was then solidified into a fibrin clot by exposing it to 10 μl of fibrinogen (50 mg/ml) and 10 μl of thrombin (50 units/ml). The solid mass of MCF-7 cells was then cut into pieces 1.5 mm in diameter. A tumor segment of ˜1.5 mm in diameter was implanted under the kidney capsule of an immunodeficient ICR-SCID male mouse (Taconic Farms) that weighed about 25 g. Estrogen supplementation was accomplished by s.c. implantation of a silastic tubing capsule containing solid E2 inserted on the day of tumor implantation. Peptide was injected i.p. every twelve hours at a dose of 1 μg per mouse. Tumor growth was monitored during survival laparotomy at 10-day intervals by measurement of the diameters of the short (d) and long axes (D) of each tumor, using a dissecting microscope equipped with an ocular micrometer. Tumor volumes were calculated using the formula (π/6)(d)^2D, assuming the tumor shape to be an ellipsoid of revolution around its long axis (D). There were five to seven replicate mice included in each treatment group. Mean tumor volume±standard error in each group was calculated for display of growth curves. Significance of differences between groups were tested using the one-sided Wilcoxon Sum of Ranks Test.

[3] = Toxicity to mice in the uterine growth assay; assay type: in vivo; settings: even at an effective dose of 1 mg/mouse
Source text: as §2

[4] = Shelf-life (storage) studies of lyophilized peptide, read out in the immature mouse uterine growth assay; assay type: physicochemical; settings: for shelf-life: storage in the lyophilized state, tested in immature mouse uterine growth assay; for time in storage after which anti-estrotrophic activity was lost (diminished to insignificant levels): lyophilized, −20° C.
Source text: as §1, §2

[5] = target: T1, estrogen receptor (Oryctolagus cuniculus, UniProt G1SML6); assay: Assessment of estrogen receptor antagonism ([3H]E2 binding, uterine cytosol); set-up: species or system rabbit; settings: for interference with E2 binding to its receptor: peptide concentration range 10^−10 M to 10^−5 M
T1 sequence (G1SML6 1-598): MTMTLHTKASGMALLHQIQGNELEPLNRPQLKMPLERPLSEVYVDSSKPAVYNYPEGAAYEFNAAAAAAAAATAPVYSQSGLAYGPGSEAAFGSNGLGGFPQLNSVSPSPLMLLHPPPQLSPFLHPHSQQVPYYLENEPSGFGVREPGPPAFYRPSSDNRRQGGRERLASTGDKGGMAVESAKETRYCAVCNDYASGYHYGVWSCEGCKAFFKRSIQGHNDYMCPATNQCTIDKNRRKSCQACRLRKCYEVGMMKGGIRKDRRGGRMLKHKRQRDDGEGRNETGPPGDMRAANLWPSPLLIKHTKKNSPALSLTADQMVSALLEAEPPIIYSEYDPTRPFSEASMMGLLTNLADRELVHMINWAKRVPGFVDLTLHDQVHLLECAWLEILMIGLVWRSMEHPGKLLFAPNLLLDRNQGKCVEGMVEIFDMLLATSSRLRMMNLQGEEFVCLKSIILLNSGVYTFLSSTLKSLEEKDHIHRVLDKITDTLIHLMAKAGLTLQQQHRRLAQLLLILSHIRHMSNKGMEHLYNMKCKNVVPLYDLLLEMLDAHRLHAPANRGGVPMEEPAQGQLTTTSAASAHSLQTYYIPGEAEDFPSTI
Description: Assessment of Estrogen Receptor Antagonism. Commercially obtained rabbit uteri (Pel-Freez Biological, Rogers, Ark.) were used as a source of estrogen receptor. […] Total count tubes received 20 μl of [^3H] estradiol and 180 μl of assay buffer.

[6] = test system: MCF-7/Tam human breast cancer xenografts; assay: Human breast cancer xenograft assay, tamoxifen-resistant MCF-7 subline; assay type: in vivo; settings: E2 implant; peptide 1 μg i.p. twice a day; tamoxifen 50 μg i.p. once a day; day 30; vs E2 alone
Description: as §3
Cell Lines. T47D and MDA-MB-231 human breast cancer cell lines were purchased from the American Type Culture Collection (Manassas, Va.). Growth medium for T47D cells consisted of RPMI 1640 (Life Technologies, Germantown, Md.) supplemented with 10% fetal bovine serum (Life Technologies) and 8 μg/ml bovine insulin (Sigma, St. Louis, Mo.). Growth medium for MDA-MB-231 consisted of Dulbecco's Modified Eagle Medium (Life Technologies) supplemented with L-glutamine (2 mM), non-essential amino acids (1%, Life Technologies) and bovine insulin (1 μg/ml). The MCF-7 cell line was obtained from Dr. Alberto C. Baldi, Institute of Experimental Biology and Medicine, Buenos Aires, Argentina, and was maintained as previously describedby Gierthy et al. (1991).
Human Breast Cancer Xenograft Assay. […] Tumor growth was monitored during survival laparotomy at 10-day intervals by measurement of the diameters of the short (d) and long axes (D) of each tumor, using a dissecting microscope equipped with an ocular micrometer. Tumor volumes were calculated using the formula (π/6)(d)^2D, assuming the tumor shape to be an ellipsoid of revolution around its long axis (D). […] Mean tumor volume±standard error in each group was calculated for display of growth curves. […]

[7] = tamoxifen users; cited from earlier work
[8] = test system: estrogen-receptor-negative MDA-MB-231 human breast cancer xenografts; assay: Human breast cancer xenograft assay, MDA-MB-231; assay type: in vivo; settings: ER− tumor, 30 day observation
[9] = test system: T47D human breast cancer xenografts; assay: Human breast cancer xenograft assay, T47D; assay type: in vivo; settings: E2 supplementation; 30-day observation; vs E2 alone
[10] = test system: tamoxifen-stimulated growth of immature mouse uterus; assay: Inhibition of tamoxifen-stimulated growth of immature mouse uterus; assay type: in vivo; settings: Pep i.p. one hour before Tam, uteri weighed 22 hours later
Source text: as §2

[11] = Preliminary pharmacokinetic studies in mice; assay type: in vivo, mouse
[12] = test system: growth of the immature mouse uterus; assay: Uterotrophic effect of test agent alone on immature mouse uterus; assay type: in vivo; settings: even at a dose of 10 μg/mouse
Description: Various doses indicated on the abscissa of each test agent were injected i.p. Twenty-two hours later uteri were harvested and weighed.
Immature Mouse Uterine Growth Assay. A bioassay for anti-estrotrophic activity was performed using an immature mouse uterine growth assay (22). Swiss/Webster female mice, 6-8 g in body weight (13-15 days old), were obtained from Taconic Farms (Germantown, N.Y.). […] In a typical experiment, each group received two sequential intraperitoneal injections spaced one hour apart. Test material or vehicle control for that material was contained in the first injectant. Estradiol (E2) or vehicle control for E2 was contained in the second injectant. Twenty-two hours after the second injection, uteri were dissected, trimmed free of mesenteries, and immediately weighed. The uterine weights were normalized to mouse body weights (mg uterine weight/g of body weight) to compensate for differences in body weight among litters of the same age. Experiments employed a minimum of five mice per group, and the mean normalized uterine weight±standard error for each group was calculated. Percent growth inhibition in a test group was calculated from the normalized uterine wet weights as described below.

With `CSCC[C@@H]1NC(=O)[C@H](CCC(=O)O)NC(=O)[C@H](CCC(N)=O)NC(=O)CNC(=O)[C@@H]2C[C@@H](O)CN2C(=O)[C@H](CC(N)=O)NC(=O)[C@H](C(C)C)NC(=O)[C@@H]2C[C@@H](O)CN2C(=O)[C@H]([C@@H](C)O)NC1=O` [cyclo-(SEQ ID NO: 5: EMTOVNOGQ), cyclo-(EMTOVNOGQ)] (cyclo(EMT[Hyp]VN[Hyp]GQ)) the anti-estrotrophic activity ([1]; doses higher than 10 μg/mouse) was “retained significant anti-estrotrophic activity”, the “effect on estrogen-dependent growth (tumor volume) of MCF-7 xenografts” value (“effect on estrogen-dependent growth” for short) [2] was “significantly inhibited” and the “toxicity to the mice” value [3] was “no evidence of toxicity”. For the same compound, the shelf-life [4] was “indefinite shelf-life”.

With `O=C(c1ccc(OCCN2CCCCC2)cc1)c1c(-c2ccc(O)cc2)sc2cc(O)ccc12` [raloxifene, reference compound] the “inhibition of estradiol binding to its receptor” value ([5]; concentration of 100 nM) was “completely inhibited”.

In the case of `CC/C(=C(\c1ccccc1)c1ccc(OCCN(C)C)cc1)c1ccccc1` [tamoxifen, reference compound], the “effect on growth (tumor volume) of tamoxifen-resistant MCF-7 subline xenografts” value [6] is listed as “only minimally effective”, the “users in whom uterine cancer is caused (side effect)” value [7] is listed as 0.2% and the “effect on estrogen-dependent growth” value [2] is listed as “no increase in tumor volume”. For the same compound, the “effect on growth (tumor volume) of MDA-MB-231 xenografts” value (from here on “effect … of MDA-MB-231 xenografts”) [8] was “did not affect the growth” and the “effect on growth (tumor volume) of T47D xenografts” value [9] was “prevented growth”.

In the case of “EMTOVNOG (EMT[Hyp]VN[Hyp]G) [SEQ ID NO: 4: EMTOVNOG, linear octapeptide where O is hydroxyproline (4-hydroxyproline for both prolines)]”, the “effect on growth (tumor volume) of tamoxifen-resistant MCF-7 subline xenografts” value [6] is reported as “completely stopped the growth”, the “inhibition of the uterotrophic effect of estradiol (normalized uterine weight, E2+ Pep vs E2)” value [1] is reported as “inhibited” and the “inhibition of the uterotrophic effect of estradiol (normalized uterine weight, E2+ Pep vs E2)” value ([1]; listed as AFP-derived peptide) is reported as “significantly different”. The “dose of maximal (optimal) inhibition of estrogen-stimulated growth of mouse uterus” value [1] was 1 μg/mouse, the “inhibition of tamoxifen's uterotrophic effect (normalized uterine weight, Tam+ Pep vs Tam)” value [10] was “significantly inhibited” and the “inhibition of tamoxifen's uterotrophic effect (normalized uterine weight, Tam+ Pep vs Tam)” value ([10]; listed as AFP-derived peptide) was “significantly different”. For the same compound, the “inhibition of tamoxifen's uterotrophic effect (normalized uterine weight, Tam+ Pep vs Tam)” value ([10]; listed as Peptide) was “inhibited”, the biological half-life [11] was “two to three” and the “interference with E2 binding to its receptor” value [5] was “no interference”. For the same compound, the “interference with E2 binding to its receptor” value ([5]; listed as linear hydroxyproline-containing octapeptide) was “did not interfere”, the “effect on estrogen-dependent growth” value [2] was “inhibited; also recorded: no significant increase in tumor volume” and the shelf-life [4] was “indefinite shelf-life”. The “effect … of MDA-MB-231 xenografts” value [8] was “no effect”, the “effect … of MDA-MB-231 xenografts” value ([8]; listed as AFP-derived peptide) was “no differences in tumor volumes” and the “effect on growth (tumor volume) of T47D xenografts” value [9] was “completely prevented tumor growth”. For the same compound, the uterotrophic effect [12] was “no uterotrophic effect whatsoever”.

For “EMTPVNPG [SEQ ID NO: 6: EMTPVNPG, native AFP-derived octapeptide, amino acids 472-479 of alpha-fetoprotein, reference compound]”, the “dose of maximal (optimal) inhibition of estrogen-stimulated growth of mouse uterus” value [1] was ~1 μg/mouse, the “effect of 4 M urea treatment on biological activity of stored peptide” value [1] was “regenerated” and the “effect of excipient on shelf-life of the peptide” value (“effect of excipient” below) ([4]; excipient: dodecylmaltoside) was “significantly prolonged shelf-life”. For the same compound, the “effect of excipient” value ([4]; excipient: mannitol) was “significantly prolonged shelf-life”, the “effect of excipient” value ([4]; excipient: sucrose) was “did not do so” and the “time in storage after which anti-estrotrophic activity was lost (diminished to insignificant levels)” value [4] was “four to five”.

In the case of “EMTPVNPGQ [SEQ ID NO: 7: EMTPVNPGQ, linear nonapeptide, glutamine residue added to the C-terminus of the native octapeptide]”, the “dose of maximal (optimal) inhibition of estrogen-stimulated growth of mouse uterus” value [1] is reported as 1 μg/mouse.

For “QMTPVNPG [SEQ ID NO: 2: QMTPVNPG, linear octapeptide analog of the AFP octapeptide, N-terminal glutamic acid substituted with glutamine]”, the “biological activity of gel-filtration fraction” value ([1]; higher molecular weight fraction) was “biologically inactive”, the “biological activity of gel-filtration fraction” value ([1]; lower molecular weight fraction) was “active” and the “dose of maximal (optimal) inhibition of estrogen-stimulated growth of mouse uterus” value [1] was 1 μg/mouse. The “effect of 4 M urea treatment on biological activity of stored peptide” value [1] was “restored its biological activity”, the “biological activity of aged peptide” value ([1]; stored in the lyophilized state at −20° C. for over one year) was “completely biologically inactive” and the “time in storage after which anti-estrotrophic activity was lost (diminished to insignificant levels)” value [4] was “five and four to five”. The shelf-life [4] was “stored somewhat better than the native octapeptide”.

In the case of “cyclo-(EMTPVNPGQ) (head-to-tail cyclization) [head-to-tail cyclized nonapeptide]”, the “inhibition of estrogen-stimulated growth of immature mouse uterus” value ([1]; at the optimal dose of the linear peptides (1 μg)) is reported as “very active”, the “effect of 4 M urea treatment on biological activity of stored peptide” value [1] is reported as “restored the optimal biological activity” and the shelf-life [4] is reported as “somewhat extended but still rather limited shelf-life”. For the same compound, the “biological activity after prolonged storage” value ([4]; storage of six months) was “significant, albeit not optimal, biological activity”.
